Structures can show the parent of a compound that is named as a salt. Where two headings read alike, the source gives them in different places.
How the values were obtained:
Assay type in all cases: biochemical
human A3A (APOBEC3A) = human A3A (APOBEC3A) (Homo sapiens, UniProt P31941); experiment: fluorescence-based ssDNA cytosine deaminase assay, A3A
human A3G (APOBEC3G) = human A3G (APOBEC3G) (Homo sapiens, UniProt Q9HC16); experiment: fluorescence-based ssDNA cytosine deaminase assay, A3G
[1] = biological target: E. coli uracil DNA glycosylase (UDG) (Escherichia coli, UniProt P12295); experiment: UDG assay
[2] = read-out: IC50 Values A3A, dose response, purified A3A-mycHis
[3] = read-out: IC50 Values A3G, dose response, purified full-length A3G-mycHis
[4] = read-out: IC50 Values UDG, no deaminase, uracil ssDNA substrate

Chain of human A3A (APOBEC3A) (P31941 whole entry): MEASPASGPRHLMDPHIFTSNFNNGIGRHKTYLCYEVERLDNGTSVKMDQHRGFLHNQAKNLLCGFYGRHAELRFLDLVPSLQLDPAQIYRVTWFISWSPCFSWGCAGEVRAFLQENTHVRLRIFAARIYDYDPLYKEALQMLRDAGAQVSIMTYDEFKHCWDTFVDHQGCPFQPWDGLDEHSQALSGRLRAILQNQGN
Chain of E. coli uracil DNA glycosylase (UDG) (P12295 whole entry): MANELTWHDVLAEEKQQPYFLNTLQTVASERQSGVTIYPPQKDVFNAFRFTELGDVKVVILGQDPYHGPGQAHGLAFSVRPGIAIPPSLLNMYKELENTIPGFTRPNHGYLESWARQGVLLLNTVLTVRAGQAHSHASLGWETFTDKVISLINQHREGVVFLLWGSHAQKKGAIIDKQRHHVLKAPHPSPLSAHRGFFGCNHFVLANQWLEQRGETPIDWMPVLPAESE
Chain of human A3G (APOBEC3G) (Q9HC16 whole entry): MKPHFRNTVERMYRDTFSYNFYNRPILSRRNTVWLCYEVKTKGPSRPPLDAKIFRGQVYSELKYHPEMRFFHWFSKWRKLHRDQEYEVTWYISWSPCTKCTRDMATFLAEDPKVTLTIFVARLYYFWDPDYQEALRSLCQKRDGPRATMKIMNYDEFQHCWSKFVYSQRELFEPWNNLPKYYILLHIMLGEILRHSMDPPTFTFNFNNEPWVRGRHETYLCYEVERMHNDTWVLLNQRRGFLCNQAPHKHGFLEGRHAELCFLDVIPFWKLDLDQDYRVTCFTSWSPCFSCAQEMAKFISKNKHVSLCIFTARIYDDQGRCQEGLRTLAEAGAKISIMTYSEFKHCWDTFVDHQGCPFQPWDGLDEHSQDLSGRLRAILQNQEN

Question: `Oc1cc2c(cc1O)C(c1ccccc1)CNCC2` (racemic) [MN15, (±)-SKF-38393 hydrochloride] was tested. Which IC50 (human A3A (APOBEC3A); [2]) did it give?
Answer: > 200 µM

Question: What about the IC50 (human A3G (APOBEC3G); [3]) of the same molecule?
Answer: 27 µM

Question: What about the IC50 [1, 4] of the same molecule?
Answer: > 200 µM

Question: With `NC(Cc1cc(O)c(O)cc1O)C(=O)O` (racemic) [MN23, 6-Hydroxy-DL-DOPA] as the molecule, how does the “inhibition of A3A (in words)” value (human A3A (APOBEC3A)) read?
Answer: inhibit A3A

Question: What about the “inhibition of A3G catalytic activity (in words)” value (human A3G (APOBEC3G)) of the same molecule?
Answer: inhibit A3G catalytic activity

Question: And the IC50 (human A3G (APOBEC3G); [3])?
Answer: 4 µM

Question: And the IC50 [1, 4]?
Answer: > 200 µM

Question: With `O=C(/C=C/c1ccc(O)c(O)c1)OCCc1ccccc1` [CAPE, caffeic acid phenethyl ester, reference compound] as the molecule, how does the “inhibition of A3A (in words)” value (human A3A (APOBEC3A)) read?
Answer: no significant effect

Question: What about the IC50 (human A3G (APOBEC3G)) of the same molecule?
Answer: > 100 µM

Question: And the “inhibition of A3G catalytic activity (in words)” value (human A3G (APOBEC3G))?
Answer: no significant effect

Question: For `O=C(/C=C/c1ccc(O)c(O)c1)O[C@@H]1C[C@](O)(C(=O)O)C[C@@H](O)[C@H]1O` [Chlorogenic acid, reference compound], which IC50 (human A3G (APOBEC3G)) is on record?
Answer: > 100 µM

Question: What about the “inhibition of A3G catalytic activity (in words)” value (human A3G (APOBEC3G)) of the same molecule?
Answer: no effect

Question: Which “inhibition of A3A (in words)” value (human A3A (APOBEC3A)) does the source give for `O=C(/C=C/c1ccc(O)c(O)c1)O[C@@H](C(=O)O)[C@@H](OC(=O)/C=C/c1ccc(O)c(O)c1)C(=O)O` [L-Chicoric Acid, reference compound] here?
Answer: inhibited

Question: What about the “inhibition of A3G catalytic activity (in words)” value (human A3G (APOBEC3G)) of the same molecule?
Answer: inhibited

Question: And the IC50 (human A3G (APOBEC3G); [3])?
Answer: 2.8 µM

Question: For `O=C(O)[C@H](O)[C@@H](O)C(=O)O` [L-Tartaric Acid, reference compound], which IC50 (human A3G (APOBEC3G)) is on record?
Answer: > 100 µM

Question: And the “inhibition of A3G catalytic activity (in words)” value (human A3G (APOBEC3G))?
Answer: no effect

Question: How did the IC50 (human A3G (APOBEC3G)) turn out when `O=C(O)C1=CC(=C(c2ccc(O)c(C(=O)O)c2)c2ccc(O)c(C(=O)O)c2)C=CC1=O` [MN1, Aurintricarboxylic acid] was run?
Answer: 0.49 µM

Question: And the IC50 [1]?
Answer: 15 µM

Question: What about the “inhibition of UDG activity (in words)” value [1] of the same molecule?
Answer: blocked UDG activity

Question: How did the IC50 (human A3A (APOBEC3A); [2]) turn out when `CC(=O)NCCc1ccc(O)c(O)c1` [MN3, N-Acetyldopamine monohydrate] was run?
Answer: > 200 µM

Question: And the IC50 (human A3G (APOBEC3G); [3])?
Answer: 0.45 µM

Question: For `O=C1C=CC(=O)C=C1` [MN4, p-Benzoquinone], which IC50 (human A3A (APOBEC3A); [2]) is on record?
Answer: > 200 µM

Question: And the IC50 (human A3G (APOBEC3G); [3])?
Answer: 0.17 µM

Question: For `O=C(O)/C=C/c1ccc(O)c(O)c1` [MN5, Caffeic acid], which IC50 (human A3A (APOBEC3A)) is on record?
Answer: > 200 µM

Question: What about the IC50 (human A3G (APOBEC3G)) of the same molecule?
Answer: 85 µM

Question: And the IC50 [1]?
Answer: > 200 µM

Question: `O=C(O)c1cc[c]([Hg][Cl])cc1` [MN6, 4-Chloromercuribenzoic acid] was tested. Which IC50 (human A3A (APOBEC3A); [2]) did it give?
Answer: 0.26 µM

Question: What about the IC50 (human A3G (APOBEC3G); [3]) of the same molecule?
Answer: 0.13 µM

Question: Which IC50 (human A3A (APOBEC3A)) does the source give for `CC(=O)OCC1=C(C(=O)O)N2C(=O)[C@@H](NC(=O)CSc3ccncc3)[C@H]2SC1` [MN7, Cephapirin sodium salt] here?
Answer: 12 µM

Question: What about the IC50 (human A3G (APOBEC3G)) of the same molecule?
Answer: 7.5 µM

Question: Which IC50 (human A3A (APOBEC3A)) does the source give for `C[C@@](Cc1ccc(O)c(O)c1)(NN)C(=O)O` [MN9, S-(−)-Carbidopa] here?
Answer: > 200 µM

Question: And the IC50 (human A3G (APOBEC3G))?
Answer: 5.3 µM

Question: Which IC50 (human A3A (APOBEC3A)) does the source give for `O=C(O)Cc1ccc(O)c(O)c1` [MN12, 3,4-Dihydroxyphenylacetic acid] here?
Answer: > 200 µM

Question: What about the IC50 (human A3G (APOBEC3G)) of the same molecule?
Answer: 19 µM

Question: And the IC50 [1]?
Answer: > 200 µM

Question: For `CCCN1CCc2cccc3c2[C@H]1Cc1ccc(O)c(O)c1-3` [MN14, R(−)-Propylnorapomorphine hydrochloride], which IC50 (human A3A (APOBEC3A); [2]) is on record?
Answer: > 200 µM

Question: And the IC50 (human A3G (APOBEC3G); [3])?
Answer: 6.4 µM

Question: Which IC50 (human A3A (APOBEC3A); [2]) does the source give for `CCCN1CCc2cc(O)cc3c2[C@H]1Cc1ccc(O)c(O)c1-3` [MN17, R(−)-2,10,11-Trihydroxy-N-propylnoraporphine hydrobromide hydrate] here?
Answer: > 200 µM

Question: What about the IC50 (human A3G (APOBEC3G); [3]) of the same molecule?
Answer: 13 µM

Question: For `Oc1ccc(O)cc1` [MN21, Hydroquinone], which IC50 (human A3A (APOBEC3A)) is on record?
Answer: > 200 µM

Question: `Oc1ccc(Cn2cc[nH]c2=S)cc1` [MN22, 1-(4-Hydroxybenzyl)imidazole-2-thio] was tested. Which IC50 (human A3A (APOBEC3A); [2]) did it give?
Answer: > 200 µM

Question: What about the IC50 [1, 4] of the same molecule?
Answer: > 200 µM

Question: With `CN[C@@H](C)[C@H](O)c1ccccc1` [MN25, (1R,2S)-(−)-Ephedrine] as the molecule, how does the IC50 (human A3A (APOBEC3A); [2]) read?
Answer: 54 µM

Question: And the IC50 (human A3G (APOBEC3G); [3])?
Answer: 1.3 µM

Question: What does the source list for `CC(Cc1ccc(O)c(O)c1)C(C)Cc1ccc(O)c(O)c1` (centres unmarked) [MN31, Nordihydroguaiaretic acid]?
Answer: IC50 (human A3A (APOBEC3A); [2]): > 200 µM; IC50 (human A3G (APOBEC3G); [3]): 8.8 µM

Question: Which IC50 (human A3A (APOBEC3A); [2]) does the source give for `Cc1nc(N=Nc2cc(S(=O)(=O)O)c3cc([N+](=O)[O-])cc(S(=O)(=O)O)c3c2)c(COP(=O)(O)O)c(C=O)c1O` [MN33, PPNDS tetrasodium] here?
Answer: 3.3 µM

Question: And the IC50 (human A3G (APOBEC3G); [3])?
Answer: 5.6 µM

Question: For `O=C(O)[C@]1(O)C[C@@H](O)[C@@H](O)[C@H](O)C1` [Quinic Acid, reference compound], which IC50 (human A3G (APOBEC3G)) is on record?
Answer: > 100 µM

Question: What about the “inhibition of A3G catalytic activity (in words)” value (human A3G (APOBEC3G)) of the same molecule?
Answer: no effect

Question: For “R(−)-N-Allylnorapomorphine hydrobromide [MN11]”, which IC50 (human A3A (APOBEC3A); [2]) is on record?
Answer: > 200 µM

Question: And the IC50 (human A3G (APOBEC3G); [3])?
Answer: 2.9 µM

Source: paper PMC3306499 (ACS Chemical Biology, 2012)
